Measured values: patent publication US6084072A, “Purified lectin and methods of use” (The Regents of the University of Michigan, priority 1993, dated 2000)
pIC50: −log10 of the molar value. “Also recorded” adds a separate entry of the source. Like-named read-outs stand apart in the source and are kept apart here.

Key:
amaranthin [1] = target: T1, amaranthin (Amaranthus caudatus, UniProt Q71QF2); experiment: Hapten inhibition of amaranthin/asialo-ovine submaxillary mucin precipitation; assay type: binding; conditions: for Relative Inhibition potency ACA: N-Acetylgalactosamine = 1
Procedure: (§1) Precipitation assays were conducted in 1.5 ml centrifuge tubes by the method of So and Goldstein. Indicated amounts of glycoprotein were added to 80 μg of amaranthin, and the total volume was adjusted to 250 μl with phosphate buffered saline. The tubes were incubated at 37° C. and then kept at 4° C. for 2 days. The precipitates were centrifuged, washed with cold Phosphate buffered saline, dissolved in 0.05 N NaOH and analyzed for protein by the method of Lowery et al. using bovine serum albumin as the standard. Hapten inhibition assays were carried out using 80 μg of amaranthin, 5 μg of asialo-ovine submaxillary mucins, and the indicated sugar concentrations. Inhibition was determined relative to the amount of precipitate formed in the control with no sugar added. All precipitation assays were conducted in duplicate to bring the tolerance within ±5% and the amount of precipitate formed average.

[2] = target: T2, Artocarpus intergrifolia lectin (Artocarpus integer, UniProt P18670); conditions: cited from earlier work
T2 construct: host or cells: Artocarpus integrifolia seeds

PNA [3] = target: T3, PNA (Arachis hypogaea, UniProt P02872); experiment: Hapten inhibition of PNA/asialoglycophorin precipitation; assay type: binding; conditions: for Relative Inhibition potency PNA: Galactose = 1, 40 μg PNA, 6 μg asialoglycophorin
T3 construct: purchased E.Y. Laboratories, San Mateo, Calif; (donated by Dr. A. Chu)
T3 sequence (P02872 24-273): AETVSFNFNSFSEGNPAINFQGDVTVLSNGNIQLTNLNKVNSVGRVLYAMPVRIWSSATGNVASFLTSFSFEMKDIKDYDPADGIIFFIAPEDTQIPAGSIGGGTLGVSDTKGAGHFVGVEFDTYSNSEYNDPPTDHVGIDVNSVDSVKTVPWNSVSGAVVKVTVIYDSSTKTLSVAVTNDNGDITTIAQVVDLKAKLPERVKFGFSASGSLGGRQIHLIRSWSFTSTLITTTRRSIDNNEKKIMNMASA
Procedure: (§2) Precipitation reactions with PNA were carried out similarly, except that 40 μg of PNA was used. Hapten inhibition studies with PNA used 40 μg of PNA, 6 μg of asialoglycophorin, and the indicated sugar concentrations.

amaranthin [4] = target: T1, amaranthin; experiment: Elution of amaranthin from Synsorb-T column; assay type: binding
From the text: The unbound material was washed from the Synsorb-T beads with phosphate buffered saline (PBS), and the A. caudatus lectin was eluted with 0.1 N acetic acid, pH 3. The Synsorb-T beads are fine particles of diatomaceous earth, or sand material bonded to the disaccharide Galβ1,3GalNAcα-O--(CH2)8 CO. […] Thus, it was necessary to reapply the unbound material to the affinity column to obtain the remaining lectin.
Elution of amaranthin from the affinity columns with non-specific agents was employed due to the expense and limited availability of Galβ1,3GalNAc, the best binding ligand. GalNAc (0.5 M) was effective in displacing amaranthin from the Synsorb-T matrix. However, when amaranthin (0.9 mg) was applied to a small Synsorb-T column (0.58 ml), it was observed that 100 μM Galβ1,3GalNAcα-O-benzyl eluted the lectin.

PNA [5] = target: T3, PNA; conditions: reported by Lotan, Pereira; cited from earlier work
amaranthin [6] = target: T1, amaranthin; experiment: Precipitation of amaranthin by glycoproteins and glycoconjugates, native or glycosidase treated; assay type: binding; conditions: for Precipitate formation with amarantin: Glycosidase: β-Galactosidase; for precipitation of amaranthin, in words: untreated glycoprotein or glycoconjugate, 80 μg amaranthin
Procedure: Glycosidase digestions, and in particular exo-β-galactosidase digestions were carried out for 9 hours at 37° C. in 0.1 M sodium citrate, pH 4.3 using 0.1 unit of enzyme/μmol of terminal galactosyl group. Endo-α-N-acetylgalactosaminidase treatment of asialo-ovine submaxillary mucin was done as described in Sadler, J. E., Rearick, J. L., Paulson, J. C., and Hill, R. L. (1979). GSC Exo-α-N-acetylgalactosaminidase digestion of asialo-ovine submaxillary mucin was carried out according to the recommendations of Genzyme of Boston, Mass. Glycoproteins were analyzed for carbohydrate composition, before and after glycosidase treatment, as described.
as §1

PNA [7] = target: T3, PNA; experiment: Precipitation reactions with PNA; assay type: binding
Procedure: as §2

PNA [8] = target: T3, PNA; conditions: reported by Pereira; cited from earlier work

T1 sequence (Q71QF2 entry or part of it): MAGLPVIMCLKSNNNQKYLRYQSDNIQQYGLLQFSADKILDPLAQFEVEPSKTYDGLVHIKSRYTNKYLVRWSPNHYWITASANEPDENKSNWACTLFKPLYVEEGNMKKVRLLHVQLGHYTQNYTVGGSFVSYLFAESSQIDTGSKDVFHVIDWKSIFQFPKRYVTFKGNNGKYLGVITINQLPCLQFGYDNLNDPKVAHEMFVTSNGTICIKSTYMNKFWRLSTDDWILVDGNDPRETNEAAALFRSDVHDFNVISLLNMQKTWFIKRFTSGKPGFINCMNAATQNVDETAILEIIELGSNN
T2 sequence (P18670 whole entry): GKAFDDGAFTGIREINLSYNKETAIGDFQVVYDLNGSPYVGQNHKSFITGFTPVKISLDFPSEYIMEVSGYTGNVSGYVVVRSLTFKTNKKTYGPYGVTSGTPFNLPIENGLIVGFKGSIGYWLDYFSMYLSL
T2 sequence (P18673 whole entry partner): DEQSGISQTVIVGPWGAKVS

| Compound | pIC50 (amaranthin [1]) | Relative Inhibition potency ACA (amaranthin [1]) | Relative Inhibition potency PNA (PNA [3]) | precipitation of amaranthin, in words (amaranthin [6]) | also measured |
| --- | --- | --- | --- | --- | --- |
| CC(=O)N[C@H]1C(O)O[C@H](CO)[C@H](O)[C@@H]1O[C@@H]1O[C@H](CO)[C@H](O)[C@H](O)[C@H]1O (some centres unmarked) [Galβ1,3GalNAc] | 5.47 | 232 |  |  | times more potent than GalNAc [2]: 37; times more potent than galactose [2]: 100 |
| C=CCO[C@H]1O[C@H](CO)[C@H](O)[C@H](O[C@@H]2O[C@H](CO)[C@H](O)[C@H](O)[C@H]2O)[C@H]1NC(C)=O [Galβ1,3GalNAcα-O-CH2 CH = CH2] | 5.68 | 376 | 38 |  | fold more potent than the anomeric β-O-allyl glycoside (amaranthin [1]; inhibitor of amaranthin): 16 |
| CO[C@H]1O[C@H](CO)[C@H](O)[C@H](O[C@@H]2O[C@H](CO)[C@H](O)[C@H](O)[C@H]2O)[C@H]1NC(C)=O [Galβ1,3GalNAcα-O-CH3] | 5.51 |  | 47 |  |  |
| CC(=O)N[C@H]1[C@@H](OCc2ccccc2)O[C@H](CO)[C@H](O)[C@@H]1O[C@@H]1O[C@H](CO)[C@H](O)[C@H](O)[C@H]1O [Galβ1,3GalNAcα-O-benzyl] | 5.80 | 494 | 50 |  | concentration that eluted the lectin (amaranthin [4]; 0.9 mg amaranthin on 0.58 ml Synsorb-T column): 100 µM |
| COC(=O)CCCCCCCCO[C@H]1O[C@H](CO)[C@H](O)[C@H](O[C@@H]2O[C@H](CO)[C@H](O)[C@H](O)[C@H]2O)[C@H]1NC(C)=O [Galβ1,3GalNAcαO(CH2)8 -CH-CH3] | 5.74 | 439 | 47 |  |  |
| CO[C@@H]1O[C@H](CO)[C@H](O)[C@H](O[C@@H]2O[C@H](CO)[C@H](O)[C@H](O[C@@H]3O[C@H](CO)[C@H](O)[C@H](O)[C@H]3O)[C@H]2NC(C)=O)[C@H]1O [Galβ1,3GalNAcβ1,3Galβ-O--CH3] |  | < 0.08 | 38 |  | inhibition of amaranthin/AOSM precipitation, in words (amaranthin [1]): poor inhibitor |
| CO[C@H]1O[C@H](CO)[C@H](O)[C@H](O[C@@H]2O[C@H](CO)[C@H](O)[C@H](O)[C@H]2O)[C@H]1O [Galβ1,3Galα-O-CH3] |  | < 0.8 | 4.2 |  | inhibition of amaranthin/AOSM precipitation, in words (amaranthin [1]): very poor inhibitors; inhibition of PNA, in words (PNA [3]): rather good inhibitors |
| CC(=O)N[C@H]1C(O)O[C@H](CO)[C@@H](O[C@@H]2O[C@H](CO)[C@H](O)[C@H](O)[C@H]2O)[C@@H]1O (some centres unmarked) [Galβ1,4GlcNAc] |  | < 0.008 |  |  | inhibition of PNA, in words (PNA [5]): rather good inhibitors |
| CC(=O)N[C@H]1[C@H](O[C@H]2[C@@H](O)[C@@H](CO)O[C@@H](O[C@H]3[C@@H](O)[C@@H](CO)O[C@H](OCc4ccccc4)[C@@H]3NC(C)=O)[C@@H]2O)O[C@H](CO)[C@@H](O)[C@@H]1O [GlcNAcβ1,3Galβ1,3GalNAcα-O-benzyl] | 4.60 | 32 | < 10 |  | decrease of potency by a factor, against Galβ1,3GalNAcα-O-benzyl (amaranthin [1]; C'-3 substitution with GlcNAc): 10; fold lower reactivity compared with NeuAcα2,3Galβ1,3GalNAcα-O (amaranthin [1]; amaranthin): 10 |
| CO[C@H]1O[C@H](CO)[C@H](O)[C@H](O)[C@H]1O [Methyl α-galactoside] |  | < 0.003 | 2.2 |  |  |
| CO[C@@H]1O[C@H](CO)[C@H](O)[C@H](O)[C@H]1O [Methyl β-galactoside] |  | < 0.003 | 0.8 |  |  |
| CC(=O)N[C@H]1C(O)O[C@H](CO)[C@H](O)[C@@H]1O (some centres unmarked) [N-Acetylgalactosamine] | 3.10 |  | < 0.4 |  | times less potent than Galβ1,3GalNAcα-O--R (α-linked T-antigen disaccharides) (amaranthin [1]; inhibitor of amaranthin): 350; inhibition of amaranthin/AOSM precipitation, in words (amaranthin [1]; listed as GalNAc): only monosaccharide found to inhibit; also recorded: inhibited by GalNAc; concentration effective in displacing amaranthin from the Synsorb-T matrix (amaranthin [4]): 0.5 M |
| Asialo-glycopeptide Mt: NH2-terminal 39 amino acids of asialoglycophorin with 12 Galβ1,3GalNAcα-O residues and one N-linked oligosaccharide (LSTTEVAMHTSTSSSVTKSYISSQTNDTHKRDTYAATPR; desialylated glycans; UniProt P02724 20-58, looked up, fragment) |  |  |  | reacted strongly; also recorded: reacts very well with amaranthin | Precipitate formation with amarantin (amaranthin [6]): No; Precipitate formation with amarantin (amaranthin [6]; listed as asialo-glycopeptide Mt): reactivity was eliminated; also recorded: no longer precipitates |
| Asialofetuin: desialylated fetuin |  |  |  | precipitated a small amount of amaranthin; also recorded: weak precipitation reaction |  |
| Galβ1,3GalNAcβ-O-BSA |  |  |  |  | precipitation of PNA, in words (PNA [7]): react equally well |
| Galβ1,3[NeuAcα2,6]GalNAcα-O-BSA |  |  |  | good precipitating agents; also recorded: can precipitate amaranthin |  |
| Galβ,3GalNAcα-O-BSA |  |  |  | good precipitating agents | precipitation of PNA, in words (PNA [7]): react equally well; precipitation of amaranthin, in words (amaranthin [6]; listed as Galβ1,3GalNAcα-O-BSA): can be precipitated by |
| NeuAcα2,3Galβ1,3GalNAcα-OBSA |  |  |  | good precipitating agents | precipitation of PNA, in words (PNA [7]): not precipitated |
| asialo-α1 -acidglycoprotein: desialylated α1-acid glycoprotein |  |  |  | did not precipitate amaranthin | precipitation of / reaction with PNA, in words (PNA [8]): precipitated by |
| bovine submaxillary mucin |  |  |  | did not form precipitates |  |
| fetuin: fetuin, three O-linked oligosaccharide chains per molecule |  |  |  | did not precipitate amaranthin; also recorded: does not precipitate fetuin |  |
| laminin |  |  |  | did not precipitate amaranthin |  |
